Measurements reported in PubChem BioAssay AID2060900 (Molecular Pharmacology Branch, DTP, NCI, 2025).
Values joined by “and” are separate entries in the source; they are usually repeats but may differ in a detail not shown here. Identical values can stand only once.

Tested on: 521955-158-R2-J5-PDC complex spheroids, viability
Test: Anticancer human tumor 521955-158-R2-J5-PDC patient-derived pancreatic carcinoma cell line growth inhibition [RAS]
Conditions: for viability, T/C: stronger effect = lower value
How it was run: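 Agents were tested in combination matrices in half-log decrements from a top concentration at or near clinical Cmax (10 microM if undetermined). Targets were multi-cell spheroids of tumour lines plus HUVEC and MSC stromal cells.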
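Note: compound exposure lasted seven days before the viability read.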
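Throughout, for viability, T/C: spheroids also contain HUVEC endothelial cells and mesenchymal stem cells as stroma.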

For `C[C@@H](NC(=O)c1ncnc(N)c1Cl)c1ncc(C(=O)Nc2cc(C(F)(F)F)c(Cl)cn2)s1` + C=CC(=O)N1CCN(c2nc(OCC3CCCN3C)nc3c(F)c(-c4nc(N)cc(C)c4C(F)(F)F)c(Cl)cc23)C(C)C1, the IC50 (curve of first compound, second compound 0.00316 µM) was over 10 µM, the IC50 (curve of first compound, second compound 0.01 µM) was over 10 µM and the IC50 (curve of first compound, second compound 0.0316 µM) was over 10 µM. For the same compound, the IC50 (curve of first compound, second compound 0.1 µM) was over 10 µM, the IC50 (curve of first compound, second compound 0.316 µM) was over 10 µM and the IC50 (curve of first compound, second compound 1 µM) was 6.75 µM. The viability, T/C (second compound 0.00316 µM, first compound 0.0316 µM) was 105%, the viability, T/C (second compound 0.00316 µM, first compound 0.1 µM) was 90.8% and the viability, T/C (second compound 0.00316 µM, first compound 0.316 µM) was 103%. It also gave a viability, T/C (second compound 0.00316 µM, first compound 1 µM) of 103%, a viability, T/C (second compound 0.00316 µM, first compound 3.16 µM) of 89.3% and a viability, T/C (second compound 0.00316 µM, first compound 10 µM) of 56.3%. The viability, T/C (second compound 0.01 µM, first compound 0.0316 µM) was 107%, the viability, T/C (second compound 0.01 µM, first compound 0.1 µM) was 134% and the viability, T/C (second compound 0.01 µM, first compound 0.316 µM) was 84.8%. The viability, T/C (second compound 0.01 µM, first compound 1 µM) was 130%, the viability, T/C (second compound 0.01 µM, first compound 3.16 µM) was 82.9% and the viability, T/C (second compound 0.01 µM, first compound 10 µM) was 60.2%. The viability, T/C (second compound 0.0316 µM, first compound 0.0316 µM) was 101%, the viability, T/C (second compound 0.0316 µM, first compound 0.1 µM) was 138% and the viability, T/C (second compound 0.0316 µM, first compound 0.316 µM) was 92.8%. It also gave a viability, T/C (second compound 0.0316 µM, first compound 1 µM) of 129%, a viability, T/C (second compound 0.0316 µM, first compound 3.16 µM) of 80.7% and a viability, T/C (second compound 0.0316 µM, first compound 10 µM) of 53.2%. It also gave a viability, T/C (second compound 0.1 µM, first compound 0.0316 µM) of 144%, a viability, T/C (second compound 0.1 µM, first compound 0.1 µM) of 132% and a viability, T/C (second compound 0.1 µM, first compound 0.316 µM) of 112%. It also gave a viability, T/C (second compound 0.1 µM, first compound 1 µM) of 86.5%, a viability, T/C (second compound 0.1 µM, first compound 3.16 µM) of 73.1% and a viability, T/C (second compound 0.1 µM, first compound 10 µM) of 54.8%. For the same compound, the viability, T/C (second compound 0.316 µM, first compound 0.0316 µM) was 164%, the viability, T/C (second compound 0.316 µM, first compound 0.1 µM) was 179% and the viability, T/C (second compound 0.316 µM, first compound 0.316 µM) was 96%. The viability, T/C (second compound 0.316 µM, first compound 1 µM) was 96.2%, the viability, T/C (second compound 0.316 µM, first compound 3.16 µM) was 79.5% and the viability, T/C (second compound 0.316 µM, first compound 10 µM) was 57.1%. The viability, T/C (second compound 1 µM, first compound 0.0316 µM) was 198%, the viability, T/C (second compound 1 µM, first compound 0.1 µM) was 93.3% and the viability, T/C (second compound 1 µM, first compound 0.316 µM) was 88.5%. For the same compound, the viability, T/C (second compound 1 µM, first compound 1 µM) was 76.5%, the viability, T/C (second compound 1 µM, first compound 3.16 µM) was 74.2% and the viability, T/C (second compound 1 µM, first compound 10 µM) was 56.6%.

`CCN1CCN(Cc2ccc(Nc3ncc(F)c(-c4cc(F)c5nc(C)n(C(C)C)c5c4)n3)nc2)CC1` + CCn1c(-c2cccnc2C(C)OC)c2c3cc(ccc31)N1CCOC(CC(NC(=O)C(C(C)C)N(C)C(=O)C3(F)CCN(C(=O)C#CC(C)(C)N(C)C)CC3)C(=O)N3CCCC(N3)C(=O)OCC(C)(C)C2)C1 gave an IC50 (curve of first compound, second compound 0.000949 µM) of over 1 µM, an IC50 (curve of first compound, second compound 0.003 µM) of over 1 µM and an IC50 (curve of first compound, second compound 0.00949 µM) of over 1 µM. The IC50 (curve of first compound, second compound 0.03 µM) was over 1 µM, the IC50 (curve of first compound, second compound 0.0949 µM) was over 1 µM and the IC50 (curve of first compound, second compound 0.3 µM) was over 1 µM. The viability, T/C (second compound 0.000949 µM, first compound 0.00316 µM) was 96.8%, the viability, T/C (second compound 0.000949 µM, first compound 0.01 µM) was 87.4% and the viability, T/C (second compound 0.000949 µM, first compound 0.0316 µM) was 61.9%. For the same compound, the viability, T/C (second compound 0.000949 µM, first compound 0.1 µM) was 80.1%, the viability, T/C (second compound 0.000949 µM, first compound 0.316 µM) was 87.8% and the viability, T/C (second compound 0.000949 µM, first compound 1 µM) was 74.5%. The viability, T/C (second compound 0.003 µM, first compound 0.00316 µM) was 88.6%, the viability, T/C (second compound 0.003 µM, first compound 0.01 µM) was 89.2% and the viability, T/C (second compound 0.003 µM, first compound 0.0316 µM) was 81.9%. For the same compound, the viability, T/C (second compound 0.003 µM, first compound 0.1 µM) was 75.7%, the viability, T/C (second compound 0.003 µM, first compound 0.316 µM) was 79.1% and the viability, T/C (second compound 0.003 µM, first compound 1 µM) was 70.7%. It also gave a viability, T/C (second compound 0.00949 µM, first compound 0.00316 µM) of 85.5%, a viability, T/C (second compound 0.00949 µM, first compound 0.01 µM) of 80.1% and a viability, T/C (second compound 0.00949 µM, first compound 0.0316 µM) of 74.2%. For the same compound, the viability, T/C (second compound 0.00949 µM, first compound 0.1 µM) was 79.5%, the viability, T/C (second compound 0.00949 µM, first compound 0.316 µM) was 69.1% and the viability, T/C (second compound 0.00949 µM, first compound 1 µM) was 74%. For the same compound, the viability, T/C (second compound 0.03 µM, first compound 0.00316 µM) was 73.8%, the viability, T/C (second compound 0.03 µM, first compound 0.01 µM) was 89.7% and the viability, T/C (second compound 0.03 µM, first compound 0.0316 µM) was 76.9%. It also gave a viability, T/C (second compound 0.03 µM, first compound 0.1 µM) of 75.1%, a viability, T/C (second compound 0.03 µM, first compound 0.316 µM) of 73.1% and a viability, T/C (second compound 0.03 µM, first compound 1 µM) of 73.6%. For the same compound, the viability, T/C (second compound 0.0949 µM, first compound 0.00316 µM) was 66.8%, the viability, T/C (second compound 0.0949 µM, first compound 0.01 µM) was 73.9% and the viability, T/C (second compound 0.0949 µM, first compound 0.0316 µM) was 73.7%. It also gave a viability, T/C (second compound 0.0949 µM, first compound 0.1 µM) of 74.6%, a viability, T/C (second compound 0.0949 µM, first compound 0.316 µM) of 71.6% and a viability, T/C (second compound 0.0949 µM, first compound 1 µM) of 69.4%. It also gave a viability, T/C (second compound 0.3 µM, first compound 0.00316 µM) of 71.5%, a viability, T/C (second compound 0.3 µM, first compound 0.01 µM) of 60.8% and a viability, T/C (second compound 0.3 µM, first compound 0.0316 µM) of 59.9%. It also gave a viability, T/C (second compound 0.3 µM, first compound 0.1 µM) of 58.1%, a viability, T/C (second compound 0.3 µM, first compound 0.316 µM) of 61.6% and a viability, T/C (second compound 0.3 µM, first compound 1 µM) of 61.1%.

With `NC1c2ccccc2OC12CCN(c1cnc3c(N4CCCc5ncccc54)n[nH]c3n1)CC2` (stereo unspecified) the viability, T/C (compound 0.0316 µM) was 67.5% [middle of 4 runs], the viability, T/C (compound 0.1 µM) was 58.8% [middle of 4 runs] and the viability, T/C (compound 0.316 µM) was 55.2% [middle of 4 runs]. The viability, T/C (compound 1 µM) was 53.2% [middle of 4 runs], the viability, T/C (compound 3.16 µM) was 54.8% [middle of 4 runs] and the viability, T/C (compound 10 µM) was 61.6% [middle of 4 runs]. The IC50 (curve of compound) was > 10 µM and 1.72 µM.
